Results: ChEMBL document CHEMBL1201861, “Genomics of Drug Sensitity in Cancer screening data, Wellcome Trust Sanger Institute”

Tests used:
MKN-28 = assay: cells; assay type: functional, cell-based; details: Homo sapiens;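 further: cell viability assay read-out, IC50 reflects suppression of growth of human MKN-28 cells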
Description: SANGER: Inhibition of human MKN28 cell growth in a cell viability assay.

DMS-79 = assay: cells; assay type: functional, cell-based, Homo sapiens; details: Homo sapiens, DMS-79
Description: SANGER: Inhibition of human DMS-79 cell growth in a cell viability assay.

647-V = assay: cells; assay type: functional, cell-based; details: Homo sapiens;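 further: growth inhibition of 647-V cells, read out with a cell viability assay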
Description: SANGER: Inhibition of human 647-V cell growth in a cell viability assay.

NCI-H28 = assay: cells; assay type: functional, cell-based; details: Homo sapiens;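 further: growth inhibition of human NCI-H28 cells, read out as cell viability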
Description: SANGER: Inhibition of human NCI-H28 cell growth in a cell viability assay.

KP-4 = assay: cells; assay type: functional, cell-based; details: Homo sapiens;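 further: human KP-4 cells, with growth inhibition read out through a cell viability assay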
Description: SANGER: Inhibition of human KP-4 cell growth in a cell viability assay.

Panc1005 = assay: cells; assay type: functional, cell-based; details: Homo sapiens;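 further: growth inhibition of human PANC-10-05 cells, measured by a cell viability assay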
Description: SANGER: Inhibition of human PANC-10-05 cell growth in a cell viability assay.

UMC-11 = assay: cells; assay type: functional, cell-based; details: Homo sapiens;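 further: growth inhibition of UMC-11 cells, read out with a cell viability assay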
Description: SANGER: Inhibition of human UMC-11 cell growth in a cell viability assay.

MFH-ino = assay: cells; assay type: functional, cell-based, Homo sapiens; details: Homo sapiens, MFH-ino;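 further: growth inhibition of human MFH-ino cells, read out by a cell viability assay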
Description: SANGER: Inhibition of human MFH-ino cell growth in a cell viability assay.

PANC-08-13 = assay: cells; assay type: functional, cell-based; details: Homo sapiens
Description: SANGER: Inhibition of human PANC-08-13 cell growth in a cell viability assay.

DK-MG = assay: cells; assay type: functional, cell-based; details: Homo sapiens;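 further: growth inhibition of DK-MG cells, read out with a cell viability assay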
Description: SANGER: Inhibition of human DK-MG cell growth in a cell viability assay.

23132-87 = assay: cells; assay type: functional, cell-based; details: Homo sapiens
Description: SANGER: Inhibition of human 23132-87 cell growth in a cell viability assay.

A-431 = assay: cells; assay type: functional, cell-based; details: Homo sapiens;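 further: growth inhibition of A-431 cells, determined with a cell viability read-out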
Description: SANGER: Inhibition of human A431 cell growth in a cell viability assay.

BHT-101 = assay: cells; assay type: functional, cell-based; details: Homo sapiens
Description: SANGER: Inhibition of human BHT-101 cell growth in a cell viability assay.

P12-Ichikawa = assay: cells; assay type: functional, cell-based; details: Homo sapiens
SAOS-2 = assay: cells; assay type: functional, cell-based; details: Homo sapiens;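 further: growth inhibition of human Saos-2 cells determined by a cell viability assay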
Description: SANGER: Inhibition of human Saos-2 cell growth in a cell viability assay.

EGI-1 = assay: cells; assay type: functional, cell-based; details: Homo sapiens;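 further: cell viability readout used to gauge growth inhibition of EGI-1 cells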
Description: SANGER: Inhibition of human EGI-1 cell growth in a cell viability assay.

NCI-H1623 = assay: cells; assay type: functional, cell-based; details: Homo sapiens;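 further: cell viability assay used as the read-out for growth inhibition of NCI-H1623 cells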
Description: SANGER: Inhibition of human NCI-H1623 cell growth in a cell viability assay.

RCM-1 = assay: cells; assay type: functional, cell-based; details: Homo sapiens;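 further: growth inhibition of the RCM-1 line, determined with a cell viability readout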
Description: SANGER: Inhibition of human RCM-1 cell growth in a cell viability assay.

U2OS = assay: cells; assay type: functional, cell-based, U-2-OS; details: Homo sapiens;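 further: growth inhibition of human U-2-OS cells, determined with a cell viability assay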
Description: SANGER: Inhibition of human U-2-OS cell growth in a cell viability assay.

5637 = assay: cells; assay type: functional, cell-based; details: Homo sapiens
Description: SANGER: Inhibition of human 5637 cell growth in a cell viability assay.

HT55 = assay: cells; assay type: functional, cell-based; details: Homo sapiens;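 further: cell viability readout measuring growth inhibition of human HT55 cells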
Description: SANGER: Inhibition of human HT55 cell growth in a cell viability assay.

MG-63 = assay: cells; assay type: functional, cell-based; details: Homo sapiens;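 further: growth inhibition of human MG-63 cells, read out with a cell viability assay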
Description: SANGER: Inhibition of human MG-63 cell growth in a cell viability assay.

ChaGo-K-1 = assay: cells; assay type: functional, cell-based; details: Homo sapiens;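 further: growth inhibition of ChaGo-K-1 cells, read out with a cell viability assay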
Description: SANGER: Inhibition of human ChaGo-K-1 cell growth in a cell viability assay.

Huh-7 = assay: cells; assay type: functional, cell-based; details: Homo sapiens;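 further: HuH-7 cell growth inhibition, read out with a cell viability assay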
Description: SANGER: Inhibition of human HuH-7 cell growth in a cell viability assay.

NCI-H460 = assay: cells; assay type: functional, cell-based; details: Homo sapiens;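 further: cell viability assay scoring growth inhibition of human NCI-H460 cells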
Description: SANGER: Inhibition of human NCI-H460 cell growth in a cell viability assay.

OVCAR-8 = assay: cells; assay type: functional, cell-based; details: Homo sapiens;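 further: growth inhibition of human OVCAR-8 cells, read out by a cell viability assay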
Description: SANGER: Inhibition of human OVCAR-8 cell growth in a cell viability assay.

EFM-19 = assay: cells; assay type: functional, cell-based; details: Homo sapiens;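 further: growth inhibition of human EFM-19 cells, measured in a cell viability assay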
Description: SANGER: Inhibition of human EFM-19 cell growth in a cell viability assay.

SK-MEL-28 = assay: cells; assay type: functional, cell-based; details: Homo sapiens;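 further: growth inhibition of human SK-MEL-28 cells, read out with a cell viability assay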
Description: SANGER: Inhibition of human SK-MEL-28 cell growth in a cell viability assay.

SF-295 = assay: cells; assay type: functional, cell-based; details: Homo sapiens;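 further: growth inhibition of SF-295 cells, read out with a cell viability assay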
Description: SANGER: Inhibition of human SF295 cell growth in a cell viability assay.

MeWo = assay: cells; assay type: functional, cell-based; details: Homo sapiens;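 further: growth inhibition of MeWo cells, determined by a cell viability readout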
Description: SANGER: Inhibition of human Mewo cell growth in a cell viability assay.

BCPAP = assay: cells; assay type: functional, cell-based; details: Homo sapiens;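 further: growth inhibition of BCPAP cells, read out in a cell viability assay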
Description: SANGER: Inhibition of human BCPAP cell growth in a cell viability assay.

OE33 = assay: cells; assay type: functional, cell-based; details: Homo sapiens;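 further: growth inhibition of human OE33 cells, measured by a cell viability assay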
Description: SANGER: Inhibition of human OE33 cell growth in a cell viability assay.

SK-N-AS = assay: cells; assay type: functional, cell-based; details: Homo sapiens;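 further: growth inhibition of human SK-N-AS cells, measured with a cell viability assay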
Description: SANGER: Inhibition of human SK-N-AS cell growth in a cell viability assay.

WM-115 = assay: cells; assay type: functional, cell-based; details: Homo sapiens
Description: SANGER: Inhibition of human WM-115 cell growth in a cell viability assay.

8305C = assay: cells; assay type: functional, cell-based; details: Homo sapiens
Description: SANGER: Inhibition of human 8305C cell growth in a cell viability assay.

CAL-72 = assay: cells; assay type: functional, cell-based; details: Homo sapiens;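 further: cell viability assay measuring inhibition of proliferation in the CAL-72 cell line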
Description: SANGER: Inhibition of human CAL-72 cell growth in a cell viability assay.

MHH-ES-1 = assay: cells; assay type: functional, cell-based; details: Homo sapiens
Description: SANGER: Inhibition of human MHH-ES-1 cell growth in a cell viability assay.

MIA PaCa-2 = assay: cells; assay type: functional, cell-based; details: Homo sapiens;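 further: growth inhibition of MIA PaCa-2 cells, read out with a cell viability assay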
Description: SANGER: Inhibition of human MIA-PaCa-2 cell growth in a cell viability assay.

SCC-25 = assay: cells; assay type: functional, cell-based; details: Homo sapiens;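 further: growth inhibition of SCC-25 cells, measured with a cell viability assay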
Description: SANGER: Inhibition of human SCC-25 cell growth in a cell viability assay.

NCI-H2347 = assay: cells; assay type: functional, cell-based; details: Homo sapiens;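 further: growth inhibition of the cell line, read out with a cell viability assay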
Description: SANGER: Inhibition of human NCI-H2347 cell growth in a cell viability assay.

HC-1 = assay: cells; assay type: functional, cell-based, Homo sapiens; details: Homo sapiens, HC-1;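 further: growth inhibition of HC-1 cells measured by a cell viability assay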
Description: SANGER: Inhibition of human HC-1 cell growth in a cell viability assay.

G-401 = assay: cells; assay type: functional, cell-based; details: Homo sapiens
Description: SANGER: Inhibition of human G-401 cell growth in a cell viability assay.

HPAF-II = assay: cells; assay type: functional, cell-based; details: Homo sapiens;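 further: growth inhibition of HPAF-II cells, read out with a cell viability assay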
Description: SANGER: Inhibition of human HPAF-II cell growth in a cell viability assay.

EW-22 = assay: cells; assay type: functional, cell-based; details: Homo sapiens;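 further: growth inhibition of the EW-22 cell line, measured with a cell viability readout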
Description: SANGER: Inhibition of human EW-22 cell growth in a cell viability assay.

769-P = assay: cells; assay type: functional, cell-based; details: Homo sapiens
Description: SANGER: Inhibition of human 769-P cell growth in a cell viability assay.

SW948 = assay: cells; assay type: functional, cell-based; details: Homo sapiens;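 further: growth inhibition of SW948 cells, read out with a cell viability assay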
Description: SANGER: Inhibition of human SW948 cell growth in a cell viability assay.

NCI-H441 = assay: cells; assay type: functional, cell-based; details: Homo sapiens;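 further: growth inhibition of NCI-H441 cells, read out with a cell viability assay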
Description: SANGER: Inhibition of human NCI-H441 cell growth in a cell viability assay.

SK-MEL-30 = assay: cells; assay type: functional, cell-based; details: Homo sapiens;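 further: growth inhibition of SK-MEL-30 cells, determined with a cell viability assay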
Description: SANGER: Inhibition of human SK-MEL-30 cell growth in a cell viability assay.

RO82-W-1 = assay: cells; assay type: functional, cell-based; details: Homo sapiens;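 further: growth inhibition of human RO82-W-1 cells, measured with a cell viability assay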
Description: SANGER: Inhibition of human RO82-W-1 cell growth in a cell viability assay.

HSC-3 = assay: cells; assay type: functional, cell-based; details: Homo sapiens
Description: SANGER: Inhibition of human HSC-3 cell growth in a cell viability assay.

NALM-6 = assay: cells; assay type: functional, cell-based, Homo sapiens; details: Homo sapiens, NALM-6;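 further: growth inhibition of NALM-6 cells, read out with a cell viability assay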
Description: SANGER: Inhibition of human NALM-6 cell growth in a cell viability assay.

EVSA-T = assay: cells; assay type: functional, cell-based, Homo sapiens; details: Homo sapiens, EVSA-T;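 further: growth inhibition of EVSA-T cells, read out with a cell viability assay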
Description: SANGER: Inhibition of human EVSA-T cell growth in a cell viability assay.

NCCIT = assay: SANGER: Inhibition of human NCCIT cell growth in a cell viability assay.; assay type: functional, cell-based; details: Homo sapiens, NCCIT
P31-FUJ = assay: cells; assay type: functional, cell-based, Homo sapiens; details: Homo sapiens, P31-FUJ;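 further: growth inhibition of P31-FUJ cells, read out with a viability assay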
Description: SANGER: Inhibition of human P31-FUJ cell growth in a cell viability assay.

WSU-NHL = assay: cells; assay type: functional, cell-based, Homo sapiens; details: Homo sapiens, WSU-NHL;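 further: growth inhibition of human WSU-NHL cells, read out with a cell viability assay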
Description: SANGER: Inhibition of human WSU-NHL cell growth in a cell viability assay.

NCI-H187 = assay: cells; assay type: functional, cell-based, Homo sapiens; details: Homo sapiens, NCI-H187;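 further: growth inhibition of NCI-H187 cells, read out as cell viability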
Description: SANGER: Inhibition of human NCI-H187 cell growth in a cell viability assay.

NCI-H719 = assay: cells; assay type: functional, cell-based, Homo sapiens; details: Homo sapiens, NCI-H719;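 further: growth inhibition of the cultured cell line, read out with a viability assay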
Description: SANGER: Inhibition of human NCI-H719 cell growth in a cell viability assay.

IST-SL2 = assay: cells; assay type: functional, cell-based, Homo sapiens; details: Homo sapiens, IST-SL2;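 further: growth inhibition of human IST-SL2 cells, read out by a cell viability assay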
Description: SANGER: Inhibition of human IST-SL2 cell growth in a cell viability assay.

NCI-H889 = assay: cells; assay type: functional, cell-based, Homo sapiens; details: Homo sapiens, NCI-H889;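 further: cell growth inhibition of the cell line, read out with a viability assay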
Description: SANGER: Inhibition of human NCI-H889 cell growth in a cell viability assay.

BL-41 = assay: cells; assay type: functional, cell-based; details: Homo sapiens;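 further: growth inhibition of human BL-41 cells, read out with a cell viability assay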
Description: SANGER: Inhibition of human BL-41 cell growth in a cell viability assay.

HCC1599 = assay: cells; assay type: functional, cell-based, Homo sapiens; details: Homo sapiens, HCC1599;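 further: growth inhibition of HCC1599 cells, read out in a cell viability assay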
Description: SANGER: Inhibition of human HCC1599 cell growth in a cell viability assay.

Compound: CC1=C(/C=C/C(C)=C/C=C/C(C)=C/C(=O)O)C(C)(C)CCC1 [TRETINOIN]
- IC50 (MKN-28): > 10000 nM
- IC50 (DMS-79): > 10000 nM
- IC50 (647-V): > 10000 nM
- IC50 (NCI-H28): > 10000 nM
- IC50 (KP-4): > 10000 nM
- IC50 (Panc1005): > 10000 nM
- IC50 (UMC-11): > 10000 nM
- IC50 (MFH-ino): > 10000 nM
- IC50 (PANC-08-13): > 10000 nM
- IC50 (DK-MG): > 10000 nM
- IC50 (23132-87): > 10000 nM
- IC50 (A-431): > 10000 nM
- IC50 (BHT-101): > 10000 nM
- IC50 (P12-Ichikawa): > 10000 nM
- IC50 (SAOS-2): > 10000 nM
- IC50 (EGI-1): > 10000 nM
- IC50 (NCI-H1623): > 10000 nM
- IC50 (RCM-1): > 10000 nM
- IC50 (U2OS): > 10000 nM
- IC50 5637: > 10000 nM
- IC50 (HT55): > 10000 nM
- IC50 (MG-63): > 10000 nM
- IC50 (ChaGo-K-1): > 10000 nM
- IC50 (Huh-7): > 10000 nM
- IC50 (NCI-H460): > 10000 nM
- IC50 (OVCAR-8): > 10000 nM
- IC50 (EFM-19): > 10000 nM
- IC50 (SK-MEL-28): > 10000 nM
- IC50 (SF-295): > 10000 nM
- IC50 (MeWo): > 10000 nM
- IC50 (BCPAP): > 10000 nM
- IC50 (OE33): > 10000 nM
- IC50 (SK-N-AS): > 10000 nM
- IC50 (WM-115): > 10000 nM
- IC50 (8305C): > 10000 nM
- IC50 (CAL-72): > 10000 nM
- IC50 (MHH-ES-1): > 10000 nM
- IC50 (MIA PaCa-2): > 10000 nM
- IC50 (SCC-25): > 10000 nM
- IC50 (NCI-H2347): > 10000 nM
- IC50 (HC-1): > 10000 nM
- IC50 (G-401): > 10000 nM
- IC50 (HPAF-II): > 10000 nM
- IC50 (EW-22): > 10000 nM
- IC50 (769-P): > 10000 nM
- IC50 (SW948): > 10000 nM
- IC50 (NCI-H441): > 10000 nM
- IC50 (SK-MEL-30): > 10000 nM
- IC50 (RO82-W-1): > 10000 nM
- IC50 (HSC-3): > 10000 nM

Compound: COC(=O)[C@H](CCSC)NC(=O)c1ccc(NC[C@@H](N)CS)cc1-c1ccccc1
- IC50 (MKN-28): > 1020 nM
- IC50 (DMS-79): > 1020 nM
- IC50 (647-V): > 1020 nM
- IC50 (NCI-H28): > 1020 nM
- IC50 (KP-4): > 1020 nM
- IC50 (NALM-6): > 1020 nM
- IC50 (Panc1005): > 1020 nM
- IC50 (UMC-11): > 1020 nM
- IC50 (EVSA-T): > 1020 nM
- IC50 (MFH-ino): > 1020 nM
- IC50 (NCCIT): > 1020 nM
- IC50 (PANC-08-13): > 1020 nM
- IC50 (DK-MG): > 1020 nM
- IC50 (23132-87): > 1020 nM
- IC50 (A-431): > 1020 nM
- IC50 (BHT-101): > 1020 nM
- IC50 (P12-Ichikawa): > 1020 nM
- IC50 (SAOS-2): > 1020 nM
- IC50 (EGI-1): > 1020 nM
- IC50 (NCI-H1623): > 1020 nM
- IC50 (RCM-1): > 1020 nM
- IC50 (U2OS): > 1020 nM
- IC50 5637: > 1020 nM
- IC50 (HT55): > 1020 nM
- IC50 (MG-63): > 1020 nM
- IC50 (ChaGo-K-1): > 1020 nM
- IC50 (Huh-7): > 1020 nM
- IC50 (NCI-H460): > 1020 nM
- IC50 (OVCAR-8): > 1020 nM
- IC50 (EFM-19): > 1020 nM
- IC50 (SK-MEL-28): > 1020 nM
- IC50 (SF-295): > 1020 nM
- IC50 (MeWo): > 1020 nM
- IC50 (BCPAP): > 1020 nM
- IC50 (P31-FUJ): > 1020 nM
- IC50 (OE33): > 1020 nM
- IC50 (WSU-NHL): > 1020 nM
- IC50 (SK-N-AS): > 1020 nM
- IC50 (NCI-H187): > 1020 nM
- IC50 (WM-115): > 1020 nM
- IC50 (8305C): > 1020 nM
- IC50 (CAL-72): > 1020 nM
- IC50 (MHH-ES-1): > 1020 nM
- IC50 (MIA PaCa-2): > 1020 nM
- IC50 (NCI-H719): > 1020 nM
- IC50 (SCC-25): > 1020 nM
- IC50 (NCI-H2347): > 1020 nM
- IC50 (HC-1): > 1020 nM
- IC50 (IST-SL2): > 1020 nM
- IC50 (NCI-H889): > 1020 nM
- IC50 (G-401): > 1020 nM
- IC50 (HPAF-II): > 1020 nM
- IC50 (769-P): > 1020 nM
- IC50 (SW948): > 1020 nM
- IC50 (NCI-H441): > 1020 nM
- IC50 (SK-MEL-30): > 1020 nM
- IC50 (BL-41): > 1020 nM
- IC50 (RO82-W-1): > 1020 nM
- IC50 (HCC1599): > 1020 nM
- IC50 (HSC-3): > 1020 nM

Compound: NC(=O)c1ccc(N(C(N)=O)c2c(F)cccc2F)nc1-c1ccc(F)cc1F [VX-702]
- IC50 (MKN-28): > 2000 nM
- IC50 (DMS-79): > 2000 nM
- IC50 (647-V): > 2000 nM
- IC50 (NCI-H28): > 2000 nM
- IC50 (KP-4): > 2000 nM
- IC50 (Panc1005): > 2000 nM
- IC50 (UMC-11): > 2000 nM
- IC50 (MFH-ino): > 2000 nM
- IC50 (PANC-08-13): > 2000 nM
- IC50 (DK-MG): > 2000 nM
- IC50 (23132-87): > 2000 nM
- IC50 (A-431): > 2000 nM
- IC50 (BHT-101): > 2000 nM
- IC50 (P12-Ichikawa): > 2000 nM
- IC50 (SAOS-2): > 2000 nM
- IC50 (EGI-1): > 2000 nM
- IC50 (NCI-H1623): > 2000 nM
- IC50 (RCM-1): > 2000 nM
- IC50 (U2OS): > 2000 nM
- IC50 5637: > 2000 nM
- IC50 (HT55): > 2000 nM
- IC50 (MG-63): > 2000 nM
- IC50 (ChaGo-K-1): > 2000 nM
- IC50 (Huh-7): > 2000 nM
- IC50 (NCI-H460): > 2000 nM
- IC50 (OVCAR-8): > 2000 nM
- IC50 (EFM-19): > 2000 nM
- IC50 (SK-MEL-28): > 2000 nM
- IC50 (SF-295): > 2000 nM
- IC50 (MeWo): > 2000 nM
- IC50 (BCPAP): > 2000 nM
- IC50 (OE33): > 2000 nM
- IC50 (SK-N-AS): > 2000 nM
- IC50 (WM-115): > 2000 nM
- IC50 (8305C): > 2000 nM
- IC50 (CAL-72): > 2000 nM
- IC50 (MHH-ES-1): > 2000 nM
- IC50 (MIA PaCa-2): > 2000 nM
- IC50 (SCC-25): > 2000 nM
- IC50 (NCI-H2347): > 2000 nM
- IC50 (HC-1): > 2000 nM
- IC50 (G-401): > 2000 nM
- IC50 (HPAF-II): > 2000 nM
- IC50 (EW-22): > 2000 nM
- IC50 (769-P): > 2000 nM
- IC50 (SW948): > 2000 nM
- IC50 (NCI-H441): > 2000 nM
- IC50 (SK-MEL-30): > 2000 nM
- IC50 (RO82-W-1): > 2000 nM
- IC50 (HSC-3): > 2000 nM
